Measurements published in patent US11345710B2, “Imidazo[1,2-b]pyrimido[4,5-d]pyridazin-5(6H)-ones and the use thereof” (IMPACT THERAPEUTICS (SHANGHAI), INC, priority 2017, dated 2022).
Read-outs that look alike come from different tables or passages of the source.

How the values were obtained:
NCI-H1299 cells = test: MTT based cell viability assay on NCI-H1299 cells; conditions: read-out: IC50, growth inhibition on NCI-H1299 cells
Summary of the method: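 NCI-H1299 cells (1000/well) were plated overnight, then given a seven-point serial compound dilution plus DMSO control for 3 d at 37 °C, 5% CO2. Viability was read by MTT (0.5 mg/mL, 4 h, DMSO-solubilised) at 552/630/690 nm. IC50 came from a sigmoidal fit of survival versus concentration.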

LoVo cells = test: MTT based cell viability assay on LoVo cells; conditions: read-out: IC50, growth inhibition on LoVo cells
[1] = test system: patients with advanced solid tumors; conditions: cited from earlier work
Wee1 kinase (h) = Wee1 kinase (h) (Homo sapiens, UniProt P30291); test: Wee1 kinase (h) detection method, [γ-33P]-ATP filter assay; type: biochemical; conditions: 10 μM ATP, 40 minutes at room temperature
Summary of the method: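 Radiometric filter-binding assay with human Wee1 in 20 mM Tris/HCl pH 8.5, 0.2 mM EDTA, 500 μM peptide substrate, 10 mM Mg acetate, 10 μM [γ-33P]-ATP; compounds at final 1, 0.1 or 0.01 μM. Reaction 40 min at room temperature, stopped with 0.5% phosphoric acid, spotted on P30 filtermat, scintillation counted, duplicates.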

[2] = Homo sapiens, 72 h, NCI-H1299 cells, 3 d, MTT
[3] = Homo sapiens, 72 h, LoVo cells, 3 d, MTT
[4] = of 176 evaluable patients, alone or in combination with chemotherapy

Sequence of Wee1 kinase (h) (P30291 whole entry): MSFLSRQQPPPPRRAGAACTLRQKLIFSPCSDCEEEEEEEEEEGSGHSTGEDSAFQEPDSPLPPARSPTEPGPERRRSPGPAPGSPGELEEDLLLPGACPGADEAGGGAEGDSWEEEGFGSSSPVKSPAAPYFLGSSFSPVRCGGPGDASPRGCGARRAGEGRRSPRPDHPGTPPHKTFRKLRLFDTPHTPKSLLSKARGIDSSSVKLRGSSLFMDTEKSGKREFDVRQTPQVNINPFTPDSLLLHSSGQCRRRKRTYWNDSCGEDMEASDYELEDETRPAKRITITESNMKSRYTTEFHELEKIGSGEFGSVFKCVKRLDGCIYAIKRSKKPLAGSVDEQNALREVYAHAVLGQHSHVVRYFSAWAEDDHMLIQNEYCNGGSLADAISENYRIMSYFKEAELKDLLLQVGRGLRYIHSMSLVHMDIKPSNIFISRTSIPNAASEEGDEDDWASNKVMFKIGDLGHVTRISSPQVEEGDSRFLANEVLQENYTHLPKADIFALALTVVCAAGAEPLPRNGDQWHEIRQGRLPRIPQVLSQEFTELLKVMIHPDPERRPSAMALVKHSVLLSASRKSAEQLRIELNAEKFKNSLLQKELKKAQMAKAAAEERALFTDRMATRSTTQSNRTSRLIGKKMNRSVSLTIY

Row | IC50 (NCI-H1299 cells; [2]) | IC50 (LoVo cells; [3]) | Inh. (%) of Wee1 kinase (Wee1 kinase (h); C 0.01 μm) | Inh. (%) of Wee1 kinase (Wee1 kinase (h); C 1 μm) | Structure (SMILES) | IC50 (NCI-H1299 cells; Homo sapiens, NCI-H1299, 72 h) | IC50 (LoVo cells; Homo sapiens, LoVo, 72 h) | other results
1 | 116 nM | 154 nM | 28% | – | C=CCn1c(=O)c2cnc(Nc3ccc(N4CCN(C)CC4)cc3)nc2n1-c1cccc(C(C)(C)O)n1 [AZD1775] | – | – | response rate ([1]; TP53 wild-type patients (n=33)): 12%; safety and tolerability ([1]; alone or in combination with chemotherapy, at a certain dose): safe and tolerable; partial response [1, 4]: 10%; stable disease as the best response [1, 4]: 53%; response rate ([1]; patients with TP53 mutation (n=19)): 21%
2 | 445 nM | 818 nM | – | 96% | CN1Cc2cc(Nc3ncc4c(=O)n(-c5c(F)cccc5Cl)n5ccnc5c4n3)ccc2C(C)(C)C1 [Example 12, 6-(2-chloro-6-fluorophenyl)-2-((2,4,4-trimethyl-1,2,3,4-tetrahydroisoquinolin-7-yl)amino)imidazo[1,2-b]pyrimido[4,5-d]pyridazin-5(6H)-one] | – | – | –
3 | 284 nM | 213 nM | 14% | 97% | Cc1cc(Nc2ncc3c(=O)n(-c4c(F)cccc4Cl)n4ccnc4c3n2)ccc1N1CCN(C)CC1 [Example 9, 6-(2-chloro-6-fluorophenyl)-2-((3-methyl-4-(4-methylpiperazin-1-yl)phenyl)amino)imidazo[1,2-b]pyrimido[4,5-d]pyridazin-5(6H)-one] | – | – | –
4 | 271 nM | 242 nM | 17% | 92% | Cc1cc(Nc2ncc3c(=O)n(-c4c(Cl)cccc4Br)n4ccnc4c3n2)ccc1N1CCN(C)CC1 [Example 46, 6-(2-bromo-6-chlorophenyl)-2-((3-methyl-4-(4-methylpiperazin-1-yl)phenyl)amino)imidazo[1,2-b]pyrimido[4,5-d]pyridazin-5(6H)-one] | – | – | –
5 | 540 nM | 434 nM | – | 95% | Cc1cnc2c3nc(Nc4ccc(N5CCN(C)CC5)c(Cl)c4)ncc3c(=O)n(-c3c(Cl)cccc3Cl)n12 [Example 56, 6-(2,6-dichlorophenyl)-2-((3-chloro-4-(4-methylpiperazin-1-yl)phenyl)amino)-8-methylimidazo[1,2-b]pyrimido[4,5-d]pyridazin-5(6H)-one] | – | – | –
6 | 337 nM | 272 nM | – | 91% | Cc1cc(Nc2ncc3c(=O)n(-c4c(Cl)cccc4Br)n4ccnc4c3n2)ccc1N1CCC(N(C)C)CC1 [Example 49, 6-(2-bromo-6-chlorophenyl)-2-((3-methyl-4-(4-(dimethylamino)piperidin-1-yl)phenyl)amino)imidazo[1,2-b]pyrimido[4,5-d]pyridazin-5(6H)-one] | – | – | –
7 | 270 nM | 333 nM | 12% | – | Cc1cc(Nc2ncc3c(=O)n(-c4c(F)cccc4Br)n4ccnc4c3n2)ccc1N1CCC(N(C)C)CC1 [Example 45, 6-(2-bromo-6-fluorophenyl)-2-((3-methyl-4-(4-(dimethylamino)piperidin-1-yl)phenyl)amino)imidazo[1,2-b]pyrimido[4,5-d]pyridazin-5(6H)-one] | – | – | –
8 | 511 nM | 259 nM | – | 95% | CN1CCN(c2ccc(Nc3ncc4c(=O)n(-c5c(F)cccc5Cl)n5ccnc5c4n3)cc2Cl)CC1 [Example 21, 6-(2-chloro-6-fluorophenyl)-2-((3-chloro-4-(4-methylpiperazin-1-yl)phenyl)amino)imidazo[1,2-b]pyrimido[4,5-d]pyridazin-5(6H)-one] | – | – | –
9 | 809 nM | 642 nM | 12% | 94% | Cc1cccc(Cl)c1-n1c(=O)c2cnc(Nc3ccc(N4CCN(C)CC4)c(Cl)c3)nc2c2nccn21 [Example 53, 6-(2-chloro-6-methylphenyl)-2-((3-chloro-4-(4-methylpiperazin-1-yl)phenyl)amino)imidazo[1,2-b]pyrimido[4,5-d]pyridazin-5(6H)-one] | – | – | Inh. (%) of Wee1 kinase (Wee1 kinase (h); C 0.1 μm): 69%
10 | 802 nM | 902 nM | 5% | 96% | Cc1cc(Nc2ncc3c(=O)n(-c4c(C)cccc4Cl)n4ccnc4c3n2)cc(C)c1N1CCN(C)CC1 [Example 17, 6-(2-chloro-6-methylphenyl)-2-((3,5-dimethyl-4-(4-methylpiperazin-1-yl)phenyl)amino)imidazo[1,2-b]pyrimido[4,5-d]pyridazin-5(6H)-one] | – | – | Inh. (%) of Wee1 kinase (Wee1 kinase (h); C 0.1 μm): 56%

More lines, now with the values behind:

Row | Structure (SMILES) | IC50 (NCI-H1299 cells; [2]) | IC50 (LoVo cells; [3]) | Inh. (%) of Wee1 kinase (Wee1 kinase (h); C 0.01 μm) | Inh. (%) of Wee1 kinase (Wee1 kinase (h); C 1 μm) | IC50 (NCI-H1299 cells; Homo sapiens, NCI-H1299, 72 h) | IC50 (LoVo cells; Homo sapiens, LoVo, 72 h) | other results
11 | CN1CCN(c2ccc(Nc3ncc4c(=O)n(-c5c(Cl)cccc5Cl)n5ccnc5c4n3)cc2Cl)CC1 [Example 27, 6-(2,6-dichlorophenyl)-2-((3-chloro-4-(4-methylpiperazin-1-yl)phenyl)amino)imidazo[1,2-b]pyrimido[4,5-d]pyridazin-5(6H)-one] | – | – | 17% | 97% | 470 nM | 370 nM | Inh. (%) of Wee1 kinase (Wee1 kinase (h); C 0.1 μm): 76%
12 | Cc1cc(Nc2ncc3c(=O)n(-c4c(Cl)cccc4Cl)n4ccnc4c3n2)ccc1N1C[C@@H](C)N(C(C)C)[C@@H](C)C1 [Example 34, 6-(2,6-dichlorophenyl)-2-((3-methyl-4-((3S,5R)-4-isopropyl-3,5-dimethylpiperazin-1-yl)phenyl)amino)imidazo[1,2-b]pyrimido[4,5-d]pyridazin-5(6H)-one] | – | – | 21% | – | 219 nM | 236 nM | –
13 | Cc1cc(Nc2ncc3c(=O)n(-c4c(Cl)cccc4Cl)n4cc(C(C)C)nc4c3n2)ccc1N1CCC(N(C)C)CC1 [Example 62, 6-(2,6-dichlorophenyl)-2-((3-methyl-4-(4-(dimethylamino)piperidin-1-yl)phenyl)amino)-9-isopropylimidazo[1,2-b]pyrimido[4,5-d]pyridazin-5(6H)-one] | 197 nM | 620 nM | 7% | – | – | – | –
14 | CN(C)C1CCN(c2ccc(Nc3ncc4c(=O)n(-c5c(Cl)cccc5Cl)n5ccnc5c4n3)cc2Cl)CC1 [Example 35, 6-(2,6-dichlorophenyl)-2-((3-chloro-4-(4-(dimethylamino)piperidin-1-yl)phenyl)amino)imidazo[1,2-b]pyrimido[4,5-d]pyridazin-5(6H)-one] | – | – | 4% | 96% | 182 nM | 302 nM | –
15 | CN(C)C1CCN(c2ccc(Nc3ncc4c(=O)n(-c5c(Cl)cccc5Br)n5ccnc5c4n3)cc2Cl)CC1 [Example 48, 6-(2-bromo-6-chlorophenyl)-2-((3-chloro-4-(4-(dimethylamino)piperidin-1-yl)phenyl)amino)imidazo[1,2-b]pyrimido[4,5-d]pyridazin-5(6H)-one] | 281 nM | 227 nM | 23% | 93% | – | – | –
16 | Cc1cc(Nc2ncc3c(=O)n(-c4c(Cl)cccc4Cl)n4ccnc4c3n2)cc(C)c1N1CCN(C)CC1 [Example 4, 6-(2,6-dichlorophenyl)-2-((3,5-dimethyl-4-(4-methylpiperazin-1-yl)phenyl)amino)imidazo[1,2-b]pyrimido[4,5-d]pyridazin-5(6H)-one] | – | – | 16% | 96% | 383 nM | 339 nM | Inh. (%) of Wee1 kinase (Wee1 kinase (h); C 0.1 μm): 73%
17 | Cc1cc(Nc2ncc3c(=O)n(-c4c(Cl)cccc4Cl)n4ccnc4c3n2)cc(F)c1N1CCN(C)CC1 [Example 28, 6-(2,6-dichlorophenyl)-2-((3-fluoro-5-methyl-4-(4-methylpiperazin-1-yl)phenyl)amino)imidazo[1,2-b]pyrimido[4,5-d]pyridazin-5(6H)-one] | – | – | 15% | 95% | 295 nM | 266 nM | –
18 | Cc1cc(Nc2ncc3c(=O)n(-c4c(Cl)cccc4Cl)n4ccnc4c3n2)cc2c1C(C)(C)CN(C)C2 [Example 43, 6-(2,6-dichlorophenyl)-2-((2,4,4,4,5-tetramethyl-1,2,3,4-tetrahydroisoquinolin-7-yl)amino)imidazo[1,2-b]pyrimido[4,5-d]pyridazin-5(6H)-one] | – | – | 9% | – | – | – | IC50 (NCI-H1299 cells; NCI-H1299 cells, 3 d, MTT): 175 nM; IC50 (LoVo cells; LoVo cells, 3 d, MTT): 476 nM
19 | Cc1cc(Nc2ncc3c(=O)n(-c4c(Cl)cccc4Cl)n4ccnc4c3n2)cc2c1CCN(C)C2 [Example 44, 6-(2,6-dichlorophenyl)-2-((2,5-dimethyl-1,2,3,4-tetrahydroisoquinolin-7-yl)amino)imidazo[1,2-b]pyrimido[4,5-d]pyridazin-5(6H)-one] | – | – | 4% | – | 164 nM | 371 nM | –
